According to patent US11324798B2, “Materials and methods for treatment of inflammation” (CYTOGEL PHARMA, LLC, priority 2010, dated 2022):

Experiments:
[1] = system: mustard oil-induced acute neurogenic inflammation in the mouse ear; experiment: 5% mustard oil-induced acute neurogenic ear swelling of the mouse, micrometry (Example 2); type: in vivo; settings: for AUC of time course of percentage ear swelling: 3 h, control 55.29±4.91
Method: For the in vivo rat and mouse experiments, 5.5 ml of the 1 mg/ml stock solution of CYT-1010 was prepared freshly every experimental day with 20% HPCD dissolved in sterile distilled water. […] The vehicle was 20% HPCD dissolved in sterile distilled water. Further dilutions of the compound for the smaller administered doses were made with this vehicle, the 500 μg/ml and 100 μg/ml concentrations looked opalescent and the lower concentrations were clear. In rats 0.1 ml/100 g, in mice 0.1 ml/10 g volumes were administered i.v. 10 min before the induction of the inflammation.
Mice were anaesthesized with urethane (1.2 g/kg i.p.) to achieve a long-lasting deep anaesthesia and minimize respiratory depression. Ten μl of 5% mustard oil dissolved in paraffin oil was smeared on both sides of both ears. Mustard oil in this concentration selectively activates Transient Receptor Potential A1 (TRPA1) on capsaicin-sensitive peptidergic sensory nerves and induces the release of sensory neuropeptides. The released CGRP and substance P (SP) in the innervated area evoke vasodilatation and plasma protein extravasation, collectively called as acute neurogenic inflammation.
CYT-1010 (1, 10, 100, 500 and 1000 μg/kg; 0.1 ml/10 g from the 0.1, 1, 10, 50 and 100 μg/ml solutions) was administered i.v. 5 min before the induction of the inflammation by mustard oil smearing. Mice in the control group were treated with the same volume of the vehicle, 20% hydroxypropyl-β-cyclodextrin dissolved in sterile distilled water. The experimental protocol is also illustrated in FIG. 1.
There were 8 mice in each CYT-1010-treated experimental group, and 9 in the vehicle-treated control group. 49 male CD1 mice (25-35 g) altogether were divided into 6 experimental groups: Group 1: vehicle-treated controls (n=9); Group 2: 1 μg/kg CYT-1010 (n=8); Group 3: 10 μg/kg CYT-1010 (n=8); Group 4: 100 μg/kg CYT-1010 (n=8); Group 5: 500 μg/kg CYT-1010 (n=8); and Group 6: 1000 μg/kg CYT-1010 (n=8).
This study was undertaken in blocks with 12-13 mice per occasion. The whole set of data was obtained during 4 days. There were 2 or 3 solvent-treated rats every day and the remaining 12 animals were randomised to receive each treatment.
The diameter of the ear was measured with an engineers' micrometer before the treatment and 4 times during the 3 h-examination period (20 min, 1 h, 2 h and 3 h). Oedema was expressed in % compared to the initial control values (Banvolgyi et al., 2004, 2005; Borzsei et al., 2008). Each of these publications is incorporated herein by reference in its entirety.
Results are expressed as the mean±s.e.m. and analyzed for statistical significance with one-way ANOVA followed by Dunnett post-hoc test when the data were compared to the control group. In the rat in vivo studies, multiple comparisons were also made with Bonferroni's modified t-test to compare the effects of the different doses to each other. *p<0.05 was considered to be significant.

[2] = Survival of anaesthetised mice after i.v. CYT-1010 injection; type: in vivo
Method: In the first series of the in vivo experiments of mice, ketamine (100 mg/kg, i.p.) and xylazine (10 mg/kg, i.m.) were used for anesthesia according to the conventional protocol.

SMILES: NC(Cc1ccc(O)cc1)C(=O)NC1CCCCNC(=O)C(Cc2ccccc2)NC(=O)C(Cc2c[nH]c3ccccc23)NC1=O [CYT-1010, H-Tyr-c-[D-Lys-Trp-Phe]]
- AUC of time course of percentage ear swelling ([1]; 1 μg/kg i.v., P<0.05): 28.99±4.60 units
- Effect on mustard oil-induced acute neurogenic ear swelling ([1]; 1 μg/kg, 10 μg/kg and 100 μg/kg i.v.): significantly reduced
- AUC of time course of percentage ear swelling ([1]; 10 μg/kg i.v., P<0.01): 28.15±3.42 units
- AUC of time course of percentage ear swelling ([1]; 100 μg/kg i.v., P<0.01): 26.55±5.51 units
- AUC of time course of percentage ear swelling ([1]; 500 μg/kg i.v., NS): 52.24±9.70 units
- AUC of time course of percentage ear swelling ([1]; 1000 μg/kg i.v., NS): 37.25±5.72 units
- Effect on mustard oil-induced ear swelling ([1]; 1, 10 and 100 μg/kg i.v., at 1 hour): significant anti-edema action
- Significant inhibition of mustard oil-induced ear swelling ([1]; 1-1000 μg/kg i.v., 20 minutes post induction): none of the examined CYT-1010 doses
- Anti-edema effect on the mouse ear ([1]; 1-1000 μg/kg i.v., throughout a 3-h period): significant anti-edema effect
- Inhibitory action on ear swelling ([1]; 10 and 100 μg/kg i.v., both later time points (2 h, 3 h)): statistically significant
- Effect on mustard oil-induced ear swelling ([1]; 500 and 1000 μg/kg i.v.): did not influence ear swelling
- Mortality after i.v. injection ([2]; mice under ketamine (100 mg/kg, i.p.) and xylazine (10 mg/kg, i.m.) anesthesia, presumably respiratory depression): all the 10 mice died promptly
- Time to death after i.v. injection ([2]; mice under ketamine/xylazine anesthesia): ≤ 5 min
- Survival after i.v. injection ([2]; mice under urethane (1.2 g/kg i.p.) anaesthesia, one death in the 1 μg/kg dose group): all mice survived except one
